From patent US20230312542A1, “HYDROXYPYRROLIDINE DERIVATIVE AND MEDICINAL APPLICATION THEREOF” (MITSUBISHI TANABE PHARMA CORPORATION, priority 2020, published 2023)

Each molecule was assayed against VHL (co-expressed with Elongin B and Elongin C) (Homo sapiens (Human), UniProt P40337) (assay: Measurement of intermolecular interactions using surface plasmon resonance (Biacore T200), Kd value for VHL). Conditions: SPR, immobilized VHL, 25° C.; read-out: Kd.
Format: binding
Excerpt: As the device, Biacore T200 (manufactured by GE Healthcare) was used. VHL was obtained by co-expressing Elongin B and Elongin C with a Twin-Strep-tag added to the N-terminus. As the sensor chip, Sensor chip CM5 (manufactured by GE Healthcare) was used. First, Strep-Tactin XT (manufactured by GE Healthcare) was immobilized on the sensor chip by amine coupling. Thereafter, VHL was immobilized using the affinity of Strep-Tactin XT and Twin-Strep-tag, and VHL was further immobilized on the sensor chip by amine coupling.
As the running buffer, a mixed solution of 20 mM HEPES pH 7.5, 150 mM NaCl, 1 mM TCEP, 0.005% Tween 20, and 2% DMSO was used. […] The Contact time and the Dissociation time were determined according to the properties of the compounds. For many compounds, 60 seconds and 120 seconds were respectively used.

Sequence of VHL (co-expressed with Elongin B and Elongin C) (P40337 whole entry, looked up): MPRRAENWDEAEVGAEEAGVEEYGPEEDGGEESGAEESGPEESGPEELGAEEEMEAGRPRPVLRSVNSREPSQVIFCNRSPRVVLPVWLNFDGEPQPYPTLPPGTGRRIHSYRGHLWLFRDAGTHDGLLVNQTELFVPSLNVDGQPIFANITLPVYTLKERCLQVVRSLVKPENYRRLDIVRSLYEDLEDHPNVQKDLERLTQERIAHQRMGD
Sequence of VHL (co-expressed with Elongin B and Elongin C) (Q15370 whole entry partner, looked up): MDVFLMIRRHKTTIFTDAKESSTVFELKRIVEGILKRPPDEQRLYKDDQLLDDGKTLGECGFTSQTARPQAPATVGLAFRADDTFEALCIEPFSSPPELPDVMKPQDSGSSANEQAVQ
Sequence of VHL (co-expressed with Elongin B and Elongin C) (Q15369 whole entry partner, looked up): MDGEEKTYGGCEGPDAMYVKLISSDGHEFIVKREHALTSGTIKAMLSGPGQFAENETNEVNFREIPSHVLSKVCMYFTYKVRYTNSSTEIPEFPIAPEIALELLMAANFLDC

SMILES	Kd [µM]
CC(=O)N[C@H](C(=O)N1C[C@H](O)C[C@H]1c1nc(C(=O)N(C)Cc2ccccn2)c[nH]1)C(C)(C)C [Example 48, 2-[(2S,4R)-1-[(2S)-2-acetamido-3,3-dimethylbutanoyl]-4-hydroxypyrrolidin-2-yl]-N-methyl-N-(pyridin-2-ylmethyl)-1H-imidazole-4-carboxamide]	1 to 10
COc1cc(C(C(=O)N2C[C@H](O)C[C@H]2c2nccn2Cc2cccc(Oc3ccccc3)c2)C(C)C)on1 (stereo partly drawn) [Example 65, 1-[(2S,4R)-4-hydroxy-2-[1-[(3-phenoxyphenyl)methyl]imidazol-2-yl]pyrrolidin-1-yl]-2-(3-methoxy-1,2-oxazol-5-yl)-3-methylbutan-1-one]	10 to 50
COc1cccc(-c2nc([C@@H]3C[C@@H](O)CN3C(=O)C(c3cc(OC)no3)C(C)C)[nH]c2-c2cccc(OC)c2)c1 (stereo partly drawn) [Example 76, 1-[(2S,4R)-2-[4,5-bis(3-methoxyphenyl)-1H-imidazol-2-yl]-4-hydroxypyrrolidin-1-yl]-2-(3-methoxy-1,2-oxazol-5-yl)-3-methylbutan-1-one]	1 to 10
COc1ccc(CN(C)C(=O)c2c[nH]c([C@@H]3C[C@@H](O)CN3C(=O)[C@@H](NC(C)=O)C(C)(C)C)n2)cc1 [Example 25, 2-[(2S,4R)-1-[(2S)-2-acetamido-3,3-dimethylbutanoyl]-4-hydroxypyrrolidin-2-yl]-N-[(4-methoxyphenyl)methyl]-N-methyl-1H-imidazole-4-carboxamide]	1 to 10
CC(=O)N[C@H](C(=O)N1C[C@H](O)C[C@H]1c1nc(C(=O)N(C)Cc2ccccc2Cl)c[nH]1)C(C)(C)C [Example 14, 2-[(2S,4R)-1-[(2S)-2-acetamido-3,3-dimethylbutanoyl]-4-hydroxypyrrolidin-2-yl]-N-[(2-chlorophenyl)methyl]-N-methyl-1H-imidazole-4-carboxamide]	1 to 10
COc1cc(C(C(=O)N2C[C@H](O)C[C@H]2c2nccn2Cc2ccccc2OCc2ccccc2)C(C)C)on1 (stereo partly drawn) [Example 66, 1-[(2S,4R)-4-hydroxy-2-[1-[(2-phenylmethoxyphenyl)methyl]imidazol-2-yl]pyrrolidin-1-yl]-2-(3-methoxy-1,2-oxazol-5-yl)-3-methylbutan-1-one]	10 to 50
CC(=O)N[C@H](C(=O)N1C[C@H](O)C[C@H]1c1nc(C(=O)N(C)Cc2cccc(-c3scnc3C)c2)c[nH]1)C(C)(C)C [Example 29, 2-[(2S,4R)-1-[(2S)-2-acetamido-3,3-dimethylbutanoyl]-4-hydroxypyrrolidin-2-yl]-N-methyl-N-[[3-(4-methyl-1,3-thiazol-5-yl)phenyl]methyl]-1H-imidazole-4-carboxamide]	1 to 10
CC(=O)N[C@H](C(=O)N1C[C@H](O)C[C@H]1c1nc(C(=O)N(C)Cc2cccc(Cl)c2)c[nH]1)C(C)(C)C [Example 15, 2-[(2S,4R)-1-[(2S)-2-acetamido-3,3-dimethylbutanoyl]-4-hydroxypyrrolidin-2-yl]-N-[(3-chlorophenyl)methyl]-N-methyl-1H-imidazole-4-carboxamide]	1 to 10
COc1ccc(-c2[nH]c([C@@H]3C[C@@H](O)CN3C(=O)C(c3cc(OC)no3)C(C)C)nc2C(F)(F)F)cc1 (stereo partly drawn) [Example 74, 1-[(2S,4R)-4-hydroxy-2-[5-(4-methoxyphenyl)-4-(trifluoromethyl)-1H-imidazol-2-yl]pyrrolidin-1-yl]-2-(3-methoxy-1,2-oxazol-5-yl)-3-methylbutan-1-one]	1 to 10
CC(=O)N[C@H](C(=O)N1C[C@H](O)C[C@H]1c1nc(C(=O)N(C)Cc2ccccc2C(F)(F)F)c[nH]1)C(C)(C)C [Example 20, 2-[(2S,4R)-1-[(2S)-2-acetamido-3,3-dimethylbutanoyl]-4-hydroxypyrrolidin-2-yl]-N-methyl-N-[[2-(trifluoromethyl)phenyl]methyl]-1H-imidazole-4-carboxamide]	1 to 10
COc1cc(C(C(=O)N2C[C@H](O)C[C@H]2c2nc(C(=O)N3CCC(Oc4ccccc4)CC3)c[nH]2)C(C)C)on1 (stereo partly drawn) [Example 1, 1-[(2S,4R)-4-hydroxy-2-[4-(4-phenoxypiperidine-1-carbonyl)-1H-imidazol-2-yl]pyrrolidin-1-yl]-2-(3-methoxy-1,2-oxazol-5-yl)-3-methylbutan-1-one]	1 to 10
COc1cc(C(C(=O)N2C[C@H](O)C[C@H]2c2nc(C(=O)N(Cc3ccc(-c4scnc4C)cc3)CC(F)(F)F)c[nH]2)C(C)C)on1 (stereo partly drawn) [Example 40, 2-[(2S,4R)-4-hydroxy-1-[2-(3-methoxy-1,2-oxazol-5-yl)-3-methylbutanoyl]pyrrolidin-2-yl]-N-[[4-(4-methyl-1,3-thiazol-5-yl)phenyl]methyl]-N-(22,2-trifluoroethyl)-1H-imidazole-4-carboxamide]	1 to 10
CC(=O)N[C@H](C(=O)N1C[C@H](O)C[C@H]1c1nc(C(=O)N(C)Cc2ccccc2)c[nH]1)C(C)(C)C [Example 51, 2-[(2S,4R)-1-[(2S)-2-acetamido-3,3-dimethylbutanoyl]-4-hydroxypyrrolidin-2-yl]-N-benzyl-N-methyl-1H-imidazole-4-carboxamide]	1 to 10
COc1cc(C(C(=O)N2C[C@H](O)C[C@H]2c2ncc(-c3cccc(-c4scnc4C)c3)[nH]2)C(C)C)on1 (stereo partly drawn) [Example 44, 1-[(2S,4R)-4-hydroxy-2-[5-[3-(4-methyl-1,3-thiazol-5-yl)phenyl]-1H-imidazol-2-yl]pyrrolidin-1-yl]-2-(3-methoxy-1,2-oxazol-5-yl)-3-methylbutan-1-one]	< 1
CC(=O)N[C@H](C(=O)N1C[C@H](O)C[C@H]1c1nc(C(=O)N(C)Cc2ccc(Cl)cc2)c[nH]1)C(C)(C)C [Example 16, 2-[(2S,4R)-1-[(2S)-2-acetamido-3,3-dimethylbutanoyl]-4-hydroxypyrrolidin-2-yl)-N-[(4-chlorophenyl)methyl]-N-methyl-1H-imidazole-4-carboxamide]	1 to 10
COc1cccc(CN(C)C(=O)c2c[nH]c([C@@H]3C[C@@H](O)CN3C(=O)[C@@H](NC(C)=O)C(C)(C)C)n2)c1 [Example 24, 2-[(2S,4R)-1-[(2S)-2-acetamido-3,3-dimethylbutanoyl]-4-hydroxypyrrolidin-2-yl]-N-[(3-methoxyphenyl)methyl]-N-methyl-1H-imidazole-4-carboxamide]	1 to 10

Continued, values first:

Kd [µM]	SMILES
1 to 10	COc1cc(C(C(=O)N2C[C@H](O)C[C@H]2c2nc(C(=O)N3CCCC(C(=O)Nc4ccccc4)C3)c[nH]2)C(C)C)on1 (stereo partly drawn) [Example 148, 1-[2-[(2S,4R)-4-hydroxy-1-[2-(3-methoxyisoxazol-5-yl)-3-methylbutanoyl]pyrrolidin-2-yl]-1H-imidazole-4-carbonyl]-N-phenylpiperidine-3-carboxamide]
1 to 10	COc1ccc(-c2cnc([C@@H]3C[C@@H](O)CN3C(=O)C(c3cc(OC)no3)C(C)C)[nH]2)cc1 (stereo partly drawn) [Example 78, 1-[(2S,4R)-4-hydroxy-2-[5-(4-methoxyphenyl)-1H-imidazol-2-yl]pyrrolidin-1-yl]-2-(3-methoxy-1,2-oxazol-5-yl)-3-methylbutan-1-one]
10 to 50	COc1cc(C(C(=O)N2C[C@H](O)C[C@H]2c2nccn2CC(=O)Nc2ccccc2)C(C)C)on1 (stereo partly drawn) [Example 96, 2-[2-[(2S,4R)-4-hydroxy-1-[2-(3-methoxy-1,2-oxazol-5-yl)-3-methylbutanoyl]pyrrolidin-2-yl]imidazol-1-yl]-N-phenylacetamide]
1 to 10	COc1cc(C(C(=O)N2C[C@H](O)C[C@H]2c2nc(C(=O)N3CCC(OCc4ccccc4)CC3)c[nH]2)C(C)C)on1 (stereo partly drawn) [Example 141, 1-[(2S,4R)-2-[4-(4-benzyloxypiperidine-1-carbonyl)-1H-imidazol-2-yl]-4-hydroxypyrrolidin-1-yl]-2-(3-methoxyisoxazol-5-yl)-3-methylbutan-1-one]
1 to 10	CC(=O)N[C@H](C(=O)N1C[C@H](O)C[C@H]1c1ncc(Cc2ccc(-c3scnc3C)cc2)[nH]1)C(C)(C)C [Example 93, N-[(1S)-1-[(2S,4R)-4-hydroxy-2-[5-[[4-(4-methyl-1,3-thiazol-5-yl)phenyl]methyl]-1H-imidazol-2-yl]pyrrolidin-1-yl]-3,3-dimethyl-1-oxobutan-2-yl]acetamide]
< 1	COc1cc(C(C(=O)N2C[C@H](O)C[C@H]2c2nc(C(=O)N3CCC(c4ccccc4)C3)c[nH]2)C(C)C)on1 (stereo partly drawn) [Example 111, 1-[(2S,4R)-4-hydroxy-2-[4-(3-phenylpyrrolidine-1-carbonyl)-1H-imidazol-2-yl]pyrrolidin-1-yl]-2-(3-methoxyisoxazol-5-yl)-3-methylbutan-1-one]
1 to 10	COc1cc(C(C(=O)N2C[C@H](O)C[C@H]2c2nc(C(=O)N3CCN(c4ccccc4)CC3)c[nH]2)C(C)C)on1 (stereo partly drawn) [Example 140, 1-[(2S,4R)-4-hydroxy-2-[4-(4-phenylpiperazine-1-carbonyl)-1H-imidazol-2-yl]pyrrolidin-1-yl]-2-(3-methoxyisoxazol-5-yl)-3-methylbutan-1-one]
< 1	COc1cc(C(C(=O)N2C[C@H](O)C[C@H]2c2nc(C(=O)N3CC(c4ccccc4)C3)c[nH]2)C(C)C)on1 (stereo partly drawn) [Example 108, 1-[(2S,4R)-4-hydroxy-2-[4-(3-phenylazetidine-1-carbonyl)-1H-imidazol-2-yl]pyrrolidin-1-yl]-2-(3-methoxyisoxazol-5-yl)-3-methylbutan-1-one]
10 to 50	COc1cc(C(C(=O)N2C[C@H](O)C[C@H]2c2nccn2Cc2cncc(-c3ccc(F)cc3)c2)C(C)C)on1 (stereo partly drawn) [Example 113, 1-[(2S,4R)-2-[1-[[5-(4-fluorophenyl)-3-pyridyl]methyl]imidazol-2-yl]-4-hydroxypyrrolidin-1-yl]-2-(3-methoxyisoxazol-5-yl)-3-methylbutan-1-one]
